What was measured:
FLT3 = biological target: T1, FLT3 (Homo sapiens, UniProt P36888); assay: Radiometric in vitro kinase activity assay, FLT3; type: biochemical; conditions: wild-type FLT3, radiometric, up to 10 μM
T1 sequence (P36888 27-993): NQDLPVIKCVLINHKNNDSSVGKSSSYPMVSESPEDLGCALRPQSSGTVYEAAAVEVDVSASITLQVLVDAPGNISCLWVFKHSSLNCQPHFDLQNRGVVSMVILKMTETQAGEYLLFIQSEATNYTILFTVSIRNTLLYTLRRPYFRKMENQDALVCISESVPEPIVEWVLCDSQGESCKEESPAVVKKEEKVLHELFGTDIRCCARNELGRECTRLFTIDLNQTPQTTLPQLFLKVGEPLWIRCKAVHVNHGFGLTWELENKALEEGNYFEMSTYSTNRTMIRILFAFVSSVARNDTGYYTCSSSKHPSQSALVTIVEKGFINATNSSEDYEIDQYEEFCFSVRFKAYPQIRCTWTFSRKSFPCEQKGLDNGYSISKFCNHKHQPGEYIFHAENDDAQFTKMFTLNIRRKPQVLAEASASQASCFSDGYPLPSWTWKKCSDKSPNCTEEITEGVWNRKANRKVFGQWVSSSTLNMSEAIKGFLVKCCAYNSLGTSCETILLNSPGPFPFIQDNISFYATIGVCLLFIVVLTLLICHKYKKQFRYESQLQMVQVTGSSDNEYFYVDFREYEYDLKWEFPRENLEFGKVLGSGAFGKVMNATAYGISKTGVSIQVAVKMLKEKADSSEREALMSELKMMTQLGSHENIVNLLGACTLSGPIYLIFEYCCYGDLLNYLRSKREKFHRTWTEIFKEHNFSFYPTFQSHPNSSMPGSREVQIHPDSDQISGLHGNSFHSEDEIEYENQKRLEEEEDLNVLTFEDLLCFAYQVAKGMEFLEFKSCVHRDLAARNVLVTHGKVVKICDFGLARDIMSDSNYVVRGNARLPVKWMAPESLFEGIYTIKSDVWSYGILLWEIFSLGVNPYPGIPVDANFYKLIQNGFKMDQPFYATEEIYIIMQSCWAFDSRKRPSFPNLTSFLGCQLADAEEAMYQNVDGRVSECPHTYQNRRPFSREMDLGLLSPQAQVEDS

MV4-11 (FLT3-ITD) = assay: Cell viability assay, MV4-11; type: cell-based; conditions: Homo sapiens
Procedure: MV-4-11 and EoL-1 were plated at a density 20,000 cells/well in a 96 well plate. Cells were incubated with DMSO, 1 µM docetaxel, or an 8-pt, 2-fold dose response of 26 in quadruplicate. On day 3 and day 7, cells from DMSO-treated wells were counted and cells from all wells were split back so that the DMSO-treated wells matched the original seeding density. Cells were centrifuged in 96 well filter plates (Sigma) and resuspended in fresh compound-containing media.
On day 10, cells were incubated with alamarBlue™ HS Cell Viability Reagent (Invitogen) (10 µL of alamarBlue in a well of 90 µL media) for 2 hours at 37C/5% CO2. Fluorescence was measured on the EnVision Plate reader (Perkin Elmer) at an ex/em of 560/590 nm. Raw fluorescence values were normalized to positive and negative controls (DMSO, 1 µM docetaxel) to get a % viability. Replicates were averaged and dose responses were plotted on a 4 Parameter Logistic […]
MV-4-11 cells were plated in 6 well plates overnight in reduced serum media (IMDM + 0.5% FBS). The following day, compound or vehicle were added to the plate for a final DMSO concentration of 0.1% and incubated at 37 C for 2 hours.
Cells were washed with 1X PBS (Gibco 10010-023), and lysed in RIPA buffer with added inhibitors. Protein concentration was determined using a BCA assay (Thermo Scientific 23225). […]

MOLM-16 (FLT3wt) = assay: Cell viability assay, MOLM-16; type: cell-based; conditions: Homo sapiens, MOLM16
phosphoPERK (T980) = assay: PERK autophosphorylation (pPERK/PERK) in mouse pancreas after oral dosing; type: in vivo; conditions: 30 mg/kg oral, 1 h
Procedure: For PK analysis of pyrrolopyrimidine analogs in mouse, rat, and dog plasma, the oral formulation was prepared as a solution containing 20% (w/v) Captisol in 25 mM NaH2PO4 buffer (pH 2). Compounds were administered orally by gavage at 10 mg/kg to female CD1 mice. After dosing, plasma samples were collected to characterize the PK profiles at 0.25, 0.5, 1, 2, 4, 8, 12 and 24 h post-dose. The plasma concentration of compound was determined by protein precipitation with acetonitrile and liquid chromatography with mass spectrometric detection (LC-MS/MS). Parameters were estimated using Phoenix (WinNonlin) pharmacokinetic software version 6.1.0 using a non-compartmental approach consistent with the oral route of administration. PK analysis of 26 in plasma and pancreas followed a similar analytical method as above, with minor modifications. Compound 26 was suspended in a vehicle consisting of 0.5% methylcellulose (400 cP) and 0.1% Tween80 in water and administered to BALB/c nude mice by oral gavage at 0.3, 1, 3, 10, 30 mg/kg. Plasma and pancreas were sampled from 5 mice per group following a single oral administration at 1, 4, 8, 12, 24 h post-dose.
Total protein was extracted from pancreas tissues sampled during PK studies described above. […]

Cc1nc(N)c2c(-c3ccc(NC(=O)[C@H](O)c4cccc(C(F)(F)F)c4)cc3C)cn(C)c2n1 [Compound 26]
IC50 (FLT3): > 1000 nM
IC50 (MV4-11 (FLT3-ITD)): 226 nM
IC50 (MOLM-16 (FLT3wt)): > 10000 nM
inhibition of pPERK/PERK in pancreas (phosphoPERK (T980)): approximately 80%

Reference: PMC9611727, “Optimization of a Novel Mandelamide-Derived Pyrrolopyrimidine Series of PERK Inhibitors” (Pharmaceutics, 2022)
